For data set [1], the target named is T1, uPAR (Homo sapiens, UniProt Q03405).
T1 construct: uPAR comprising amino acids 1-277 was expressed in Drosophila S2 cells; made in house; host or cells: Drosophila S2 cells
The data set is described as follows: Fluorescence polarization assay, displacement of GFD-FAM. In kind it is binding. The note with it: displacement of GFD-FAM from uPAR. On the procedure: Fluorescence Polarization Assay. […] Polarized fluorescence intensities were measured immediately following addition of inhibitors to the protein-peptide mix at room temperature on an EnVision® Multilabel Plate Readers (PerkinElmer) with excitation and emission wavelengths of 485 and 530 nm, respectively.
Fluorescence Polarization Screening to Identify Hit Compounds. To identify compounds that bind to uPAR at the GFD binding site, a fluorescent polarization assay is conceived with a probe that consists of labeling GFD with fluorescein at its N-terminus (GFD-FAM). […] Using this assay, all compounds that emerge from the computational screening are tested initially at a single concentration of 50 μM. The compounds showing the highest reduction in polarization are subjected to activity confirmation.

Data set [2] relates to MDA-MB-231 cells. Nature of the data set: Immunofluorescence imaging of surface uPA and uPAR. In kind it is cell-based, human. The settings on record: MDA-MB-231, 100 μM, 30 min, vs DMSO control. On the procedure: (§1) Immunofluorescence Imaging. An immunofluorescence approach was employed to establish the specificity of the compounds. This consisted of using a fluorescently labeled secondary antibody to probe for the presence of an anti-uPA antibody bound to uPA at the cell surface of MDA-MB-231 and H1299 cancer cells. […] Non-specific bindings were blocked with 5% normal goat serum, 5% BSA, 0.01% Triton X-100 in PBS at RT for 1 h, the cells were then incubated overnight at 4° C. with rabbit polyclonal anti-human uPA or mouse monoclonal anti-human uPAR antibodies (both at a dilution of 1:100 in 1% BSA/PBS). After another washing step with PBS three times, the cells were incubated with anti-rabbit IgG conjugated with Alexa 594 Texas Red (Invitrogen Corporation, Carlsbad, Calif.) or goat anti-mouse IgG conjugated with Alexa Fluor 488 (Invitrogen Corporation, Carlsbad, Calif.), both at a dilution of 1:1000 in 1% BSA/PBS at RT for 1 h in the dark. Images were acquired using a Nikon swept-filed confocal microscope.
(§2) Endogenous uPAR and uPA in the non-small cell lung cancer (NSCLC) cell line H1299 and in a breast cancer cell line MDA-MB-231 were immunostained with selective antibodies and visualized by staining with fluorescently-conjugated secondary antibodies. Cells are stained with (a) a monoclonal antibody against uPAR or (b) a polyclonal antibody against uPA.
(§3) In cells with clear surface staining, the surface of each cell was outlined using uPAR staining and then the pixel immunodensity for uPAR and uPA were determined using Nikon elements software in the outlined regions. Only cells where the cell membrane was clearly discernible were included in the analysis. Each value represents the mean±S.E. from 26-30 cells taken from three different fields from two independent samples. *significant difference from the DMSO control (p<0.001, Student's t test). In the absence of any compound (0.1% DMSO; vehicle control) both uPAR and uPA were detected in large intracellular clusters as well as on surface membranes of MDA-MB-231 cells.

In data set [3] the test system is H1299 cells. The data set is described as follows: Immunofluorescence imaging of surface uPA and uPAR. It is filed as cell-based, human. The settings on record: H1299, 100 μM, 30 min, vs DMSO control. On the procedure:
as §1, §2, §3

Data set [4] has as its system MDA-MB-231 cells. Nature of the data set: Wound healing assay. The note with it: Homo sapiens; MDA-MB-231, wound healing; read-out: migration IC50. It is filed as cell-based. On the procedure: (§4) Wound Healing Assay. Confluent cell monolayers in 12-well plates were wounded by scraping with a micropipette tip. The cells were washed and then cultured in complete media containing the compounds. The degree of wound closure was assessed in three randomly chosen regions by measuring the distance between the wound edges just after wounding and after 16 h under Nikon Diaphot 300 microscope.
(§5) Without being bound by theory, it is believed that, to invade neighboring tissue, cells must acquire additional motility, although invasion and migration may proceed through different mechanisms. […] The first uses the Boyden chamber apparatus to assess the effect of compound on migration primarily mediated by chemotaxis. […] The other approach to test for effects on migration was the wound healing assay, which probes migration mediated by a concentration gradient established by the wound. It is also not as sensitive to potential cytotoxic effects.

Data set [5] deals with H1299 cells. The data set is described as follows: Wound healing assay. In kind it is cell-based. The settings on record: Homo sapiens, NCI-H1299, read-out: migration IC50. On the procedure: as §4, §5
In data set [6] the target is T1, uPAR. The data set is described as follows: Fluorescence polarization, direct binding to uPAR. On the procedure:
Fluorescence polarization in the presence and absence of protein and were measured using identical conditions as described above.
The mP was evaluated in the a presence and absence of competing 10 μM GFD.

The subject of data set [7] is MDA-MB-231 cells. Nature of the data set: Cytotoxicity (MTT). In kind it is cell-based, human. On the procedure: (§6) Transwell Migration Assay. A 24 well transwell plates (Costar, Corning, N.Y.) were coated with fibronectin. After 4 h of serum starvation, medium containing the same amount of compounds or DMSO were added to the upper chamber and incubated at 37° C. for 8 h. The number of migrated cells was counted in 10 separate 200×fields and averaged over three independent experiments. Cytotoxicity of the compounds on the cells was measured at the same concentrations used in the migration assay during the same incubation time. MTT was added 2 h before measuring.
(§7) A 24 well transwell plates (Costar, Corning, N.Y.) were coated with 30 ng/μl of fibronectin at 4° C. overnight. 500 μl of 10% FBS RPMI-1640 medium containing compounds or 1% DMSO control was added to the lower chamber. After 4 h of serum starvation, 5×10^4 cells in 250 μl of 0.1% FBS medium containing the same amount of compounds or DMSO were added to the upper chamber and incubated at 37° C. for 8 h. Non-invaded cells on the top of the transwell were scrapped-off with a cotton swab, and the cells that had migrated through the filter were fixed in methanol for 30 min, stained with Hematoxylin Stain (Fisher, SH30-500D) for 1 h. The number of migrated cells was counted in 10 separate 200×fields and averaged over three independent experiments. Cytotoxicity of the compounds on the cells was measured at the same concentrations used in the migration assay during the same incubation time, MTT was added 2 h before measuring.
(§8) Ten fields of unit area on each membrane were counted for cell numbers (magnification, 200×). […] The effect of the compound appears to be more pronounced in MDA-MB-231 cells compared with H1299. The level of toxicity of the compounds is measured at each concentration within the timescale of the invasion experiment to ensure that the observed effects are not due to cytotoxicity (FIG. 3(a)).

Data set [8] relates to H1299 cells. The data set is described as follows: Cytotoxicity (MTT). In kind it is cell-based, human. On the procedure:
as §6, §7, §8

Data on 1 compound can be found in patent US9376406B2, “uPAR-uPA interaction inhibitors and methods for treating cancer” (Indiana University Research and Technology Corporation, priority 2011, dated 2016).

“Also recorded” adds a separate entry of the source.

T1 sequence (Q03405 23-299): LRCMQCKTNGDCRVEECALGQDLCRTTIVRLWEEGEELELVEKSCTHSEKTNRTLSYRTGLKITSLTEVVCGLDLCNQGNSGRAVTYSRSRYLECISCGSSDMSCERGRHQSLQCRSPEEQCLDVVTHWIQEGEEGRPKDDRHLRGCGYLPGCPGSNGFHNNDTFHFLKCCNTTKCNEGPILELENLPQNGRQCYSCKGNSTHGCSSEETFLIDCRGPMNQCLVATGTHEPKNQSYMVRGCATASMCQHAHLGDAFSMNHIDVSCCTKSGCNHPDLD

`CC1CC(C)CN(c2cc(Nc3ccccc3C(=O)O)c3c4c(onc24)-c2ccccc2C3=O)C1` (centres unmarked) [IPR-456] displayed a Ki on uPAR [1] of 4 µM. For the same compound, the “immunostaining pattern of uPAR” value in the data set on MDA-MB-231 cells [2] and with H1299 cells [3] was “no change in the immunostaining pattern of uPAR” each time. The “uPA staining at the cell surface” value in the data set on MDA-MB-231 cells [2] and with H1299 cells [3] was “significant reduction of uPA staining at the cell surface; also recorded: impairs binding of uPA to uPAR at the cell membrane” each time. In addition, the IC50 in the data set with MDA-MB-231 cells [4] and in the data set with H1299 cells [5] was approximately 150 µM each time. Moreover, the Kd at uPAR [6] (direct binding to uPAR by fluorescence polarization) amounted to 0.312 µM. Moreover, the “fluorescence polarization (mP) with increasing uPAR concentration” value on uPAR [6] (excitation 530 nm, emission 600 nm) was “showed a dose response with increasing mP”. On uPAR [6] (in the presence of 10 μM competing GFD), the “change in polarization with increasing uPAR” value is “no change in the polarization was detected”. Further, the cytotoxicity result with MDA-MB-231 cells [7] (MDA-MB-231, cells harvested from migration assays) was “none was observed”; with MDA-MB-231 cells [7] (MDA-MB-231, timescale of invasion experiment, concentrations reaching 200 μM), “did not exhibit undue toxicity”; in the data set on H1299 cells [8] (H1299, cells harvested from migration assays), “none was observed”; in the data set with H1299 cells [8] (H1299, timescale of invasion experiment, concentrations reaching 200 μM), “did not exhibit undue toxicity”.
